Results reported in patent publication US20240415120A1, “BINARY BIOHERBICIDE COMPRISING PELARGONIC ACID” (YPF TECNOLOGÍA S.A., priority 2023, published 2024).

Experiments:
seedlings of A. hybridus = test: Early post-emergence damage to photosystem II (Fv/Fm fluorometry); type: in vivo, Amaranthus hybridus; conditions: 5 mM
Procedure: • Plant material and culturing conditions Seeds of Amaranthus hybridus were sown on plastic boxes of 15.5×11×4 cm with moist absorbing paper (25 seeds per box). The boxes were placed in a culture chamber at 22° C. and 50 μmol photons m^−2 s^−1 with a photoperiod of 16 hours. […] The application volume for each treatment was 10 ml per box on the absorbing paper. After 7 days post-application, to avoid possible chlorosis symptoms due to a lack of nutrients, 5 ml of nutritive solution were added to each box, with the following formulation: 5.0 mM Ca(NO3)2, 5.0 mM KNO3, 2.0 mM MgSO4, 1.0 mM KH2PO4, 20.0 μM FeNaEDTA, 5.0 μM H3BO3, 0.9 μM MnCl2, 0.8 μM ZnCl2, 0.3 μM CuSO4 y 0.01 μM Na2MoO4, pH 5.5-6.5. The experiments were finished 12 days post-application.
The tested formulations were F1 and F2, both at 5 mM. […]
The objective was to assess the early post-emergence effect of the tested formulations on seedlings of A. hybridus of 7 days post-sowing. At 1, 2, 5, 7 and 12 days post-application the fluorometry measurements (Fv/Fm) were carried out to ascertain the damage to photosystem II, and the plants with bleaching or chlorosis symptoms were counted. […]
For the experiments, three boxes per treatment were used: both experiments had 5 treatments. Each experiment was repeated 3 times (assays 1, 2 and 3), and each assay was analyzed separately. […]

Pseudomonas monteilii = test: Effect on growth-promoting bacteria in liquid culture; type: cell-based; conditions: C + N 5 mM combined; F3, F4, F5 0.5% v/v; atrazine 5 mM; LB medium, 32° C.; Gompertz model
Procedure: To evaluate the effect of the compositions prepared in Example 6 on growth-promoting bacteria, a model strain of Pseudomonas monteilii was used. The microorganism was inoculated in liquid LB medium (initial optical density at 600 nm=0.1), and incubated in Erlenmeyer flasks at 32° C., 180 rpm. The effect of the active compounds (citral (C)+pelargonic acid (N), at a combined concentration of 5 mM), F3, F4 and F5 (all three at 0.5% v/v) and atrazine (5 mM) was assessed by adding each treatment to the culture medium at the moment of inoculation. The positive growth control was performed without adding any compound. Liquid samples were taken during the growth, and the biomass of the cultures was evaluated using the drop plate method described by Herigstad et al. (2001). Three repetitions were carried out in different times and the results were analyzed with the software Statistica (StatSoft, 2007) to adjust them to the Gompertz model, and thus calculate the growth parameters.

Lolium multiflorum = test: Pre-emergence germination assay in Petri dishes; type: in vivo; conditions: 168 h, L. multiflorum, after 7 days of exposure, combined concentration of both active ingredients, read-out: Germination IC50 (Confidence limit 95%)
Procedure: (§1) Aqueous extracts containing binary mixtures of formulations: F1 (citral+pelargonic acid) and F2 (thymoquinone+pelargonic acid), in both cases with a 1:1 ratio between the active compounds and with the addition of an emulsifier (soy lecithin at 35% w/w, YPF Agro, 2022) at 0.2% v/v, were tested in Petri dishes following the methodology disclosed in U.S. Pat. No. 11,083,197, with some modifications. […] The extracts were placed onto 9-cm diameter paper disks in Petri dishes. Then, ten seeds of each species were placed onto paper disks. Subsequently, the dishes were closed under the following experimental conditions: room temperature, 26.0±1.8° C.; relative humidity, 50±9.7%; and photoperiod, 12:12. The seeds were considered germinated if their roots were longer than 1 mm. Aqueous extracts without the addition of the bioactive formulation were used as negative control, whereas atrazine was used as positive control. The assays were performed in triplicates for each concentration.
(§2) The IC50 were obtained using the software POLO PLUS (LeOra Software Company).
(§3) An aqueous extract comprising the emulsifier used in Example 1 at 0.2% w/w was prepared and seeds of different species were exposed to the extract following a methodology as the one used in Example 1. Pure water was used as a negative control.

Solanum lycopersicum = test: Pre-emergence germination assay in Petri dishes; type: in vivo; conditions: 168 h, S. lycopersicum, after 7 days of exposure, combined concentration of both active ingredients, read-out: Germination IC50 (Confidence limit 95%)
Procedure: as §1, §2, §3

Amaranthus hybridus = test: Pre-emergence germination assay in Petri dishes; type: in vivo; conditions: 168 h, A. hybridus, after 7 days of exposure, combined concentration of both active ingredients, read-out: Germination IC50 (Confidence limit 95%)
Procedure: as §1, §2, §3

`CCNc1nc(Cl)nc(NC(C)C)n1` [Atrazine, atrazine] was tested, and the “Course of Fv/Fm values” (seedlings of A. hybridus; day 1 to 12 days post-application) was “gradual fall in the Fv/Fm values from day 1 until reaching minimum or non-measurable values at 12 days”, the “Effects on photosystem II in comparison to treatments F1 and F2” value (seedlings of A. hybridus; every assay) was “lower effects” and the Duplication time (Pseudomonas monteilii) was 22.03 min. The Lag pase length (Pseudomonas monteilii) was 1.3 h, the “maximum growth rate μmax” value (Pseudomonas monteilii) was 1.89 h⁻¹ and the IC50 (Lolium multiflorum) was 39 mM. For the same compound, the IC50 (Solanum lycopersicum) was 37.5 mM and the IC50 (Amaranthus hybridus) was 41 mM.
